ChEMBL document CHEMBL1143744, “Modification of eukaryotic initiation factor 5A from Plasmodium vivax by a truncated deoxyhypusine synthase from Plasmodium falciparum: An enzyme with dual enzymatic properties” (Bioorg Med Chem, 2007)

Target: T1, Deoxyhypusine synthase (Plasmodium falciparum, UniProt Q9GSW0)
T1 sequence (Q9GSW0 whole entry): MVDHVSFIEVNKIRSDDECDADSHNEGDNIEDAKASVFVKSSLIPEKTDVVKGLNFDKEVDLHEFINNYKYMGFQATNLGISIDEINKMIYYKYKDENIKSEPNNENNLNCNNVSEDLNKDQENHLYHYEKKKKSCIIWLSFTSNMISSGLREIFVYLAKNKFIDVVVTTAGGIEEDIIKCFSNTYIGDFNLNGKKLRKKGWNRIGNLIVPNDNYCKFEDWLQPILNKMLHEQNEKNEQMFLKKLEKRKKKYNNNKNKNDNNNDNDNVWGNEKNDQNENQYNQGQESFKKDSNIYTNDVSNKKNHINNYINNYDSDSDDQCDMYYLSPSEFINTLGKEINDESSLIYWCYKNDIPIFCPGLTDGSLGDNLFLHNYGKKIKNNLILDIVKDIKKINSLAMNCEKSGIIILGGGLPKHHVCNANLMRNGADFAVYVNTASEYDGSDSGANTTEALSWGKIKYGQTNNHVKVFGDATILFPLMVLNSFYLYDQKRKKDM
Assay: Inhibition of recombinant deoxyhypusine synthase in Plasmodium falciparum NF54

NCCCCCCCN
Ki: 50 µM

N=C(N)NCCCCCCCN
Ki: 0.1 µM
